# Source: patent US8802723B2, “Metabolic syndrome-improving agent and medicine, supplement, functional food and food additive containing the same” (ARKRAY, Inc., priority 2005, dated 2014)
# Tested on: aP2 mRNA
# Assay: aP2 mRNA expression in differentiated 3T3-L1 adipocytes (Light Cycler)
# Assay type: cell-based
# Conditions: 3T3-L1, 7 days after differentiation induction, non-treatment control = 100, average ± standard error
# Protocol: Differentiation Induction Medium (0.25 μM DEX, 0.5 mM MIX, 10 μg/mL Insulin/10% FBS/DMEM)
# 55 mL of FBS (fetal bovine serum (manufactured by GIBCO)) was added to 500 mL of DMEM (manufactured by SIGMA) so as to prepare 10% FBS/DMEM. To this 10% FBS/DMEM, 138.75 μL of 1 mM DEX (dexamethasone)/DMSO (manufactured by Nacalai Tesque, Inc.) and 555 μL of 10 mg/mL insulin/PBS (manufactured by SIGMA) were added. Incidentally, the insulin/PBS was obtained by adding 1N HCl to PBS in advance so as to make the solution acidic enough to allow insulin dissolution and then dissolving insulin. […]
# Next, culture preadipocytes 3T-L1 were thawed, inoculated in a 100 mm dish and cultured until 3T3-L 1 cells reached about 80% confluence. […] 7 days after the initiation of the differentiation induction, mRNA was extracted using Sepasol(R)—RNA I super (manufactured by Nacalai Tesque, Inc.), and the mRNA expression amounts of 36B4, aP2 and adiponectin, which were indicators of an early period of adipocyte differentiation, were measured using Light Cycler™. Also, the medium 7 days after the differentiation induction was taken in an amount of 1 mL from each well, and the amount of adiponectin in the medium supernatant was measured using a mouse/rat adiponectin ELISA kit (trade name) (manufactured by Otsuka Pharmaceutical Co., Ltd.). […]
smiles,measurement,setting,value
"CC(C)=CCC/C(C)=C/COc1ccc2ccc(=O)oc2c1 [Aurapten, aurapten]",aP2 mRNA expression amount (ratio to 36B4),aurapten 1 μM,208.2 ± 23.4
same,aP2 mRNA expression amount (ratio to 36B4),aurapten 5 μM,202.7 ± 19.3
